In article PMC8400542, “Anti-Inflammatory, Antipyretic, and Analgesic Properties of Potamogeton perfoliatus Extract: In Vitro and In Vivo Study” (Molecules, 2021):

Columns and labels:
[1] = Total antioxidant capacity (TAC) ELISA kit assay; settings: mean ± SE
Experimental: The antioxidant potential of the extract was evaluated by determining its TAC using a TAC ELISA kit (MBS726896, my BioSource, Inc., San Diego, CA, USA) in accordance with the manufacturer’s instructions and compared to the standard antioxidant, ascorbic acid as previously described Sobeh et al..

[2] = test system: acetic acid-induced vascular permeability in mice; assay: Acetic acid-induced vascular permeability (Evans blue); format: in vivo, mouse; settings: 20 mg/kg, p.o., compared to control mice
Experimental: To study the effect of the extract on the vascular phase of inflammation, acetic acid-induced vascular permeability was performed as described previously by Sobeh et al.. […] One hour later, Evans blue (0.25% solution in normal saline, 0.2 mL) was injected in the tail vein. Acetic acid (0.6% in normal saline, 1 mL/100 g) was then injected after 30 min in the peritoneal cavity of the treated mice. The normal control was injected with normal saline only. Mice were euthanized 30 min later by cervical dislocation, the abdominal cavities were washed with 3 mL saline solution and the collected washings were then centrifuged at 3000 rpm for 10 min. The vascular permeability is proportional to the absorbance of Evans blue dye in the supernatant, which was measured at 610 nm using a plate reader (Biotek, Winooski, VT, USA).
Figure 3 (A) Results from P. perfoliatus extract on carrageenan-induced leukocyte migration into the peritoneal cavity in mice (total number × 10^6). […] (B) Results from P. perfoliatus extract on acetic acid-induced vascular permeability. Mice received different treatments 1 h before acetic acid (0.6%, i.p.) and Evans blue dye injections. The amount of dye extravasation into the abdominal cavity was quantified and used as an indicator of inflammation degree. […]

[3] = test system: carrageenan-induced leukocyte migration in mice; assay: Carrageenan-induced leukocyte migration into the peritoneal cavity; format: in vivo, mouse; settings: 20 mg/kg, p.o.
Experimental: Three hours later, the mice were euthanized, and each peritoneal cavity was washed with 3 mL of phosphate-buffered saline (PBS) containing 1 mM EDTA. The total leukocyte count was determined in each peritoneal cavity wash using a hemocytometer and presented as number of cells/mL [3].
Figure 3 (A) Results from P. perfoliatus extract on carrageenan-induced leukocyte migration into the peritoneal cavity in mice (total number × 10^6). […] (B) Results from P. perfoliatus extract on acetic acid-induced vascular permeability. Mice received different treatments 1 h before acetic acid (0.6%, i.p.) and Evans blue dye injections. The amount of dye extravasation into the abdominal cavity was quantified and used as an indicator of inflammation degree. The results are shown as means ± SEM (n = 5–6). * p < 0.05 compared to saline group. ^# p < 0.05 compared to control (carrageenan or acetic acid only treated group).

[4] = test system: acetic acid-induced writhing in mice; assay: Acetic acid-induced abdominal writhing; settings: 20 mg/kg, p.o.
Experimental: The peripheral analgesic activity of the extract was evaluated by the acetic acid-induced writhing model in mice according to Sobeh et al. [3]. […] The number of writhes, manifested as extension of hind legs, constriction of abdomen, or turning of trunk was evaluated within 25 min. The reduction in the number of writhes as compared to the control group is indicative of the analgesic potential of the extract [3]. The percent inhibition of writhing was calculated using the following formula as previously reported [18]. % Analgesic activity = (mean writhing count (control-treatment)/mean writhing count (control)).
The data results were quantified at one-hour intervals after administration of either the extract (200 and 400 mg/kg, p.o.) or nalbuphine (10 mg/kg, p.o.).

[5] = biological target: 5-lipoxygenase (LOX); assay: Lipoxygenase inhibition, enzyme immunoassay kit; format: biochemical; settings: mean ± SE
Experimental: The in vitro enzymatic activities were determined, utilizing enzyme immunoassay kits (Cayman Chemical, Ann Arbor, MI, USA) following the manufacturer’s instructions and the study by Adellall et al..

[6] = test system: Brewer's yeast-induced pyrexia in mice; assay: Brewer's yeast-induced pyrexia; format: in vivo, mouse; settings: 150 mg/kg
Experimental: Pyrexia in mice was induced as previously reported by Liu et al. with minor modifications. The animals’ initial rectum temperature was determined using a lubricated digital thermometer. Suspension of Brewer’s yeast was prepared in normal saline (30%) and injected subcutaneously behind the neck of the animal (1 mL/100 g). After 18 h, rectal temperatures of the mice were determined again (T0). […] Pyretic animals received P. perfoliatus extract (200, 400, and 600 mg/kg, orally), paracetamol (150 mg/kg), or vehicle. Rectal temperatures were measured at 30 min, 1, 2, 3 and 24 h following the different treatments.

[7] = test system: carrageenan-induced leukocyte migration in mice; settings: cited from earlier work
[8] = test system: heat-induced nociceptive pain in mice; assay: Hot plate test (central antinociception); settings: 10 mg/kg
Experimental: To investigate the possible central analgesic activity of the studied extract, the hot plate test was performed according to Sobeh et al. [3]. […] One hour later, each individual mouse was placed on a hot plate preheated at 55 ± 1 °C and observed for any response to the heat-induced nociceptive pain (licking the fore and hind paws, hind paw lifting, or jumping). […] The overall antinociceptive activity of the extract was estimated by calculating the area under the curve (AUC) for the latency responses at the stated time points using GraphPad Prism.
(B) Hot plate response latency (s) assay. (C) AUC of response latency shown in panel (B).

[9] = test system: carrageenan-induced paw edema in rats; settings: 20 mg/kg, compared to the control group; cited from earlier work

## O=C1O[C@H]([C@@H](O)CO)C(O)=C1O [Ascorbic acid]
[1]
  TAC: 28.27 ± 1.83 U/L

## O=C(O)Cc1ccccc1Nc1c(Cl)cccc1Cl [Diclofenac]
[2]
  inhibition of vascular permeability: 67%
[3]
  decrease of the number of leukocytes: 42%
[4]
  reduction of the control writhes: 67%
[5]
  LOX IC50: 2.83 ± 0.07 µg/mL

## CC(=O)Nc1ccc(O)cc1 [Paracetamol]
[6]; 0.5 h
  Rectal Temperature Recorded Following Different Treatments: 38.14 ± 0.19 °C
[6]; 1 h
  Rectal Temperature Recorded Following Different Treatments: 37.50 ± 0.31 °C
[6]; 2 h
  Rectal Temperature Recorded Following Different Treatments: 37.12 ± 0.29 °C
[6]; 3 h
  Rectal Temperature Recorded Following Different Treatments: 36.96 ± 0.24 °C
[6]; 18 h after yeast injection (T0, before treatment)
  Rectal Temperature: 38.60 ± 0.18 °C
[6]; 24 h
  Rectal Temperature Recorded Following Different Treatments: 36.50 ± 0.22 °C

## O=C(O)/C=C/c1ccc(O)c(O)c1 [caffeic acid]
[7]
  effect on leukocyte migration: inhibited leukocyte migration

## O=C(/C=C/c1ccc(O)c(O)c1)O[C@@H]1C[C@](O)(C(=O)O)C[C@@H](O)[C@H]1O [chlorogenic acid]
[7]
  effect on leukocyte migration: inhibited leukocyte migration

## Oc1ccc2c3c1O[C@H]1[C@@H](O)CC[C@@]4(O)[C@@H](C2)N(CC2CCC2)CC[C@]314 [nalbuphine]
[8]
  increase in AUC of thermal response latency vs control: 154.7%

## O=C(O)c1ccc(O)cc1 [p-Hydroxybenzoic acid]
[9]
  effect on edema thickness: significantly decreased the edema thickness
